# Where a name gives a salt, the structure may show the parent alone.
# Biological target: T1, Na+/H+ exchanger of rabbit erythrocytes (Oryctolagus cuniculus, UniProt P23791)
# T1 construct: endogenous in cells; host or cells: erythrocytes in fresh heparinised blood of White New Zealand rabbits (Ivanovas)
# Assay: Inhibition of the Na+/H+ exchanger of rabbit erythrocytes (amiloride-sensitive sodium influx, flame photometry)
# Type: cell-based
# Conditions: hyperosmolar salt/sucrose medium, pH 7.4, 37° C.
# Text: Inhibition of the Na^+ /H^+ Exchanger of Rabbit Erythrocytes White New Zealand rabbits (Ivanovas) received a standard diet with 2% cholesterol for six weeks in order to activate the Na^+ /H^+ exchange and thus to be able to determine the Na^+ influx into the erythrocytes via Na^+ /H^+ exchange by flame photometry. The blood was removed from the auricular arteries and rendered uncoagulable by means of 25 IU of potassium heparin. A part of each sample was used for the duplicate determination of the hematocrit by centrifugation. Aliquots of 100 μl in each case served for the measurement of the Na^+ starting content of the erythrocytes. In order to determine the amiloride-sensitive sodium influx, 100 μl of each blood sample in 5 ml in each case of a hyperosmolar salt/sucrose medium (mmol/I: 140 NaCl, 3 KCl, 150 sucrose, 0.1 ouabain, 20 tris-hydroxymethyl-aminomethane) were incubated at pH 7.4 and 37° C. The erythrocytes were then washed three times with ice-cold MgCl^2 /ouabain solution (mmol/I: 112 MgCl2, 0.1 ouabain) and hemolyzed in 2.0 ml of distilled water. The intracellular sodium content was determined by flame photometry. The Na^+ net influx was calculated from the difference between sodium starting values and the sodium content of the erythrocytes after incubation. The amiloride-inhibitable sodium influx followed from the difference in the sodium content of the erythrocytes after incubation with and without amiloride 3×10^-4 mol/I. The procedure was the same in the case of the compounds according to the invention.
# T1 sequence (P23791 whole entry): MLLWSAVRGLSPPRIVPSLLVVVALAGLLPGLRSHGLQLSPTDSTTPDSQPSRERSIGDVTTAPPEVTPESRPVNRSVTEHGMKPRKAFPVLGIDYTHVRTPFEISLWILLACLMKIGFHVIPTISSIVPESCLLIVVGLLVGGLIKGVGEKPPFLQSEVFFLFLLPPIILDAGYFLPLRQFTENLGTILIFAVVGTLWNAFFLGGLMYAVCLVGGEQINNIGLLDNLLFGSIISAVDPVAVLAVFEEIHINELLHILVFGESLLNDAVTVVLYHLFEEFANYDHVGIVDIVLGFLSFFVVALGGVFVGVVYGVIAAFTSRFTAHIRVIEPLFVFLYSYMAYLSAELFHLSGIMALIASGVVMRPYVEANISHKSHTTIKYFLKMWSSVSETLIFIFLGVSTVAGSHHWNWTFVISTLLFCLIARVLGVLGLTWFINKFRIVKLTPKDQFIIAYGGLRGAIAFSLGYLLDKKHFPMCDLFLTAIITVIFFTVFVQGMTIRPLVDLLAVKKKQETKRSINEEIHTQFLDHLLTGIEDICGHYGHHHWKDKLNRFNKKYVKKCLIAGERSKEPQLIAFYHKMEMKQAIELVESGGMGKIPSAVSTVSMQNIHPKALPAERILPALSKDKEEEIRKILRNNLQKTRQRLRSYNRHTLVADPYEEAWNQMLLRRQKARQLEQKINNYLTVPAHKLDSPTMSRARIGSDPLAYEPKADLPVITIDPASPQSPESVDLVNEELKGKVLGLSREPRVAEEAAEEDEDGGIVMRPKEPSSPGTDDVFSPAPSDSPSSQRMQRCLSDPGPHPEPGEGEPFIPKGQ
row,IC50,SMILES
1,3.4 µM,"COc1ccc(C2NC(N)=Nc3ccccc32)cc1 (stereo not drawn) [Example 1, 2-Amino-4-(4-methoxyphenyl)-3,4-dihydroquinazoline Hydrochloride]"
2,3.2 µM,"COc1ccc(C2NC(N)=Nc3ccccc32)cc1OC (stereo not drawn) [Example 2, 2-Amino-4-(3,4-dimethoxyphenyl)-3,4-dihydroquinazolinium Fumarate]"
3,4.1 µM,"COc1ccc(C2c3ccccc3N=C(N)N2C)cc1OC (stereo not drawn) [Example 3, 2-Amino4-(3,4-dimethoxyphenyl)-3-methyl-3,4-dihydro-quinazolinium Fumarate]"

# Reference: patent US6331546A, “Use of 2-amino-3,4-dihydroquinazolines for the production of a medicament for the treatment or prophylaxis of illnesses caused by ischemic conditions” (Aventis Pharma Deutschland GmbH, priority 1999, dated 2001)
